Experimental data taken from patent US20230081390A1, “INHIBITORS OF RAF KINASES” (Kinnate Biopharma Inc., priority 2019, published 2023).

Each compound was assayed against human RAF1 (Homo sapiens, UniProt P04049) (assay: Protein kinase assay (33P-ATP filter binding), human RAF1, 10-dose IC50). Conditions: MEK1 (K97R) substrate 3 micromolar, ATP 10 micromolar, read-out: RAF-1 IC50.
Type: biochemical
Procedure: In brief, for each reaction, kinase and substrate were mixed in a buffer containing 20 mM HEPES (pH 7.5), 10 mM MgCl2, 1 mM EGTA, 0.02% Brij35, 0.02 mg/mL BSA, 0.1 mM Na3VO4, 2 mM DTT, and […]. All compounds were solubilized in DMSO. Compounds were then added to each reaction mixture via acoustic dispense using an ECHO 550 nanoliter dispenser. For human RAF1 testing, human MEK1 (K97R) was used as a substrate at a concentration of 3 micromolar, with a final ATP concentration of 10 micromolar. […] Reactions were carried out at room temperature for 2 hr and spotted onto P81 ion exchange cellulose chromatography paper (Reaction Biology). […] The percent remaining kinase activity relative to a vehicle-containing (DMSO) kinase reaction was calculated for each kinase/inhibitor pair. IC50 values were calculated using Prism 5 (GraphPad).

Sequence of human RAF1 (P04049 whole entry): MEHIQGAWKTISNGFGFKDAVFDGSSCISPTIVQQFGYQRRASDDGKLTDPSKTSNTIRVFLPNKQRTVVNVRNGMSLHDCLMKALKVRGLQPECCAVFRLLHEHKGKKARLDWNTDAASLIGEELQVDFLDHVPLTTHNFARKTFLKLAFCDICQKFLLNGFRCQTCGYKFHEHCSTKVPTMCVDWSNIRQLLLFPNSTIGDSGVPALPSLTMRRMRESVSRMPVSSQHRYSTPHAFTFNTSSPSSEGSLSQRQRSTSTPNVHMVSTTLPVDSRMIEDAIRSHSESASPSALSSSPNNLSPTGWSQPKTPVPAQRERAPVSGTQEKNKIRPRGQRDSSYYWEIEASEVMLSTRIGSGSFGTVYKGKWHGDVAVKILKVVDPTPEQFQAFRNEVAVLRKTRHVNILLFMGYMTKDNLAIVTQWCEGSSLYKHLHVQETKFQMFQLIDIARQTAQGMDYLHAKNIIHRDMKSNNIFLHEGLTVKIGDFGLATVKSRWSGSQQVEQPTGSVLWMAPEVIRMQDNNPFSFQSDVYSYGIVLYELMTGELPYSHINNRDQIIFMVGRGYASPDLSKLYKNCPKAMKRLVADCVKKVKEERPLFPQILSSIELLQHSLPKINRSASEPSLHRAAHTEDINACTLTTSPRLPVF

`Cc1cc(F)c(NC(=O)N2CC[C@@H](CC(F)(F)F)C2)cc1-c1cc(O[C@H](C)CO)nc(N2CCOCC2)c1` (single isomer, unassigned) [Example 182] and `Cc1cc(F)c(NC(=O)N2CC[C@H](CC(F)(F)F)C2)cc1-c1cc(O[C@H](C)CO)nc(N2CCOCC2)c1` (single isomer, unassigned) [Example 184] cannot be ordered by IC50: < 10 nM for the first, < 10 nM for the second.

`Cc1cc(F)c(NC(=O)N2CC[C@H](CC(F)(F)F)C2)cc1-c1cc(OC[C@@H](C)O)nc(N2CCOCC2)c1` (single isomer, unassigned) [Example 183] and `Cc1cc(F)c(NC(=O)N2CCC(CC(F)(F)F)C2)cc1-c1cc(OCCO)nc(N2CCOCC2)c1` (stereo in doubt) [Example 37, (3R)-N-[2-fluoro-5-[2-(2-hydroxyethoxy)-6-(morpholin-4-yl)pyridin-4-yl]-4-methylphenyl]-3-(2,2,2-trifluoroethyl)pyrrolidine-1-carboxamide] cannot be ordered by IC50: < 10 nM for the first, < 10 nM for the second.

`Cc1ccc(NC(=O)N2CC[C@@H](CC(F)(F)F)C2)cc1-c1cnc(OC2CCOCC2)c(N2CCOCC2)c1` (single isomer, unassigned) [Example 193] and `Cc1ccc(NC(=O)N2CC[C@H](CC(F)(F)F)C2)cc1-c1cnc(OC2CCOCC2)c(N2CCOCC2)c1` (single isomer, unassigned) [Example 194] cannot be ordered by IC50: < 10 nM for the first, < 10 nM for the second.

`CC(C#N)=C1CCN(C(=O)Nc2cc(-c3cc(OCCO)nc(N4CCOCC4)c3)c(C)cc2F)C1` (stereo in doubt) [Example 97, (3E)-3-(1-cyanoethylidene)-N-[2-fluoro-5-[2-(2-hydroxyethoxy)-6-(morpholin-4-yl)pyridin-4-yl]-4-methylphenyl]pyrrolidine-1-carboxamide] and `Cc1cc(F)c(NC(=O)N2CCC(C)(C)C2)cc1-c1cc(OCCO)nc(N2CCOCC2)c1` [Example 19, N-[2-fluoro-5-[2-(2-hydroxyethoxy)-6-(morpholin-4-yl)pyridin-4-yl]-4-methylphenyl]-3,3-dimethylpyrrolidine-1-carboxamide] cannot be ordered by IC50: < 10 nM for the first, < 10 nM for the second.

`Cc1ccc(NC(=O)N2CC[C@H](OC(F)(F)F)C2)cc1-c1cc(OCC(C)O)nc(N2CCOCC2)c1` (stereo in doubt) [Example 152, (3S)-N-(3-[2-[(2R)-2-hydroxypropoxy]-6-(morpholin-4-yl)pyridin-4-yl]-4-methylphenyl)-3-(trifluoromethoxy)pyrrolidine-1-carboxamide] and `Cc1ccc(NC(=O)N2CC[C@H](OC(F)(F)F)C2)cc1-c1cc(OC(C)CO)nc(N2CCOCC2)c1` (stereo in doubt) [Example 153, (3S)-N-[3-(2-[[(2R)-1-hydroxypropan-2-yl]oxy]-6-(morpholin-4-yl)pyridin-4-yl)-4-methylphenyl]-3-(trifluoromethoxy)pyrrolidine-1-carboxamide] cannot be ordered by IC50: < 10 nM for the first, < 10 nM for the second.

`Cc1cc(F)c(NC(=O)N2CC[C@@H](C(F)(F)F)C2)cc1-c1cnc(OCCO)c(N2CCOCC2)c1` [Example 12] and `Cc1cc(F)c(NC(=O)N2CC[C@H](C(F)(F)F)C2)cc1-c1cnc(OCCO)c(N2CCOCC2)c1` [Example 13, (3S)-N-[2-fluoro-5-[6-(2-hydroxyethoxy)-5-(morpholin-4-yl)pyridin-3-yl]-4-methylphenyl]-3-(trifluoromethyl)pyrrolidine-1-carboxamide] cannot be ordered by IC50: < 10 nM for the first, < 10 nM for the second.

`Cc1cc(F)c(NC(=O)N2CCC3(CC3)C2)cc1-c1cc(OCCO)nc(N2CCOCC2)c1` [Example 18, N-[2-fluoro-5-[2-(2-hydroxyethoxy)-6-(morpholin-4-yl)pyridin-4-yl]-4-methylphenyl]-5-azaspiro[2.4]heptane-5-carboxamide] and `Cc1cc(F)c(NC(=O)N2CCC3(CCC3)C2)cc1-c1cc(OCCO)nc(N2CCOCC2)c1` [Example 26, N-[2-fluoro-5-[2-(2-hydroxyethoxy)-6-(morpholin-4-yl)pyridin-4-yl]-4-methylphenyl]-6-azaspiro[3.4]octane-6-carboxamide] cannot be ordered by IC50: < 10 nM for the first, < 10 nM for the second.

`Cc1cc(F)c(NC(=O)N2CCC(F)(F)CC2)cc1-c1cc(OCCO)nc(N2CCOCC2)c1` [Example 20, 4,4-difluoro-N-[2-fluoro-5-[2-(2-hydroxyethoxy)-6-(morpholin-4-yl)pyridin-4-yl]-4-methylphenyl]piperidine-1-carboxamide] and `Cc1cc(F)c(NC(=O)N2CCCC(F)(F)C2)cc1-c1cc(OCCO)nc(N2CCOCC2)c1` [Example 24, 3,3-difluroo-N-(2-fluoro-5-(2-(2-hydroxyethoxy)-6-morpholinopyridin-4-yl)-4-methylphenyl)piperidine-1-carboxamide] fall in the same range of IC50: 10 to 100 nM for the first, 10 to 100 nM for the second.

`Cc1cc(F)c(NC(=O)N2CC(C(F)F)C2)cc1-c1cc(OCCO)nc(N2CCOCC2)c1` [Example 21, 3-(difluoromethyl)-N-[2-fluoro-5-[2-(2-hydroxyethoxy)-6-(morpholin-4-yl)pyridin-4-yl]-4-methylphenyl]azetidine-1-carboxamide] and `Cc1cc(F)c(NC(=O)N2CC3C(C2)C3(F)F)cc1-c1cc(OCCO)nc(N2CCOCC2)c1` (stereo not drawn) [Example 28, 6,6-difluoro-N-[2-fluoro-5-[2-(2-hydroxyethoxy)-6-(morpholin-4-yl)pyridin-4-yl]-4-mehtylphenyl]-3-azabicyclo[3.1.0]hexane-3-carboxamide] fall in the same range of IC50: 10 to 100 nM for the first, 10 to 100 nM for the second.

First: Cc1cc(F)c(NC(=O)N2CC(F)(F)C(F)(F)C2)cc1-c1cc(OCCO)nc(N2CCOCC2)c1 [Example 22, 3,3,4,4-tetrafluoro-N-[2-fluoro-5-[2-(2-hydroxyethoxy)-6-(morpholin-4-yl)pyridin-4-yl]-4-methylphenyl]pyrrolidine-1-carboxamide]
Second: Cc1cc(F)c(NC(=O)N2CCCC(O)(C(F)(F)F)C2)cc1-c1cc(OCCO)nc(N2CCOCC2)c1 (stereo not drawn) [Example 25, N-(2-fluoro-5-(2-(2-hydroxyethoxy)-6-morpholinopyridin-4-yl)-4-methylphenyl)-3-hydroxy-3-(trifluoromethyl)piperidine-1-carboxamide]
The IC50 of the first is lower: < 10 nM for the first, 10 to 100 nM for the second.

First: Cc1cc(F)c(NC(=O)N2CCCC3(COC3)C2)cc1-c1cc(OCCO)nc(N2CCOCC2)c1 [Example 27, N-[2-fluoro-5-[2-(2-hydroxyethoxy)-6-(morpholin-4-yl)pyridin-4-yl]-4-methylphenyl]-2-oxa-6-azaspiro[3.5]nonane-6-carboxamide]
Second: Cc1cc(F)c(NC(=O)N2CCCC3(CCC3)C2)cc1-c1cc(OCCO)nc(N2CCOCC2)c1 [Example 38, N-[2-fluoro-5-[2-(2-hydroxyethoxy)-6-(morpholin-4-yl)pyridin-4-yl]-4-methylphenyl]-6-azaspiro[3.5]nonane-6-carboxamide]
The IC50 of the first is higher: 10 to 100 nM for the first, < 10 nM for the second. The second is the more potent here.

`Cc1cc(F)c(NC(=O)NCC(F)(F)C(F)(F)F)cc1-c1cc(OCCO)nc(N2CCOCC2)c1` [Example 35, 1-[2-fluoro-5-[2-(2-hydroxyethoxy)-6-(morpholin-4-yl)pyridin-4-yl]-4-methylphenyl]-3-(2,2,3,3,3-pentafluoropropyl)urea] and `Cc1cc(F)c(NC(=O)N2CC[C@H](CC(F)(F)F)C2)cc1-c1cc(OCCO)nc(N2CCOCC2)c1` [Example 36, (3R)-N-[2-fluoro-5-[2-(2-hydroxyethoxy)-6-(morpholin-4-yl)pyridin-4-yl]-4-methylphenyl]-3-(2,2,2-trifluoroethyl)pyrrolidine-1-carboxamide] cannot be ordered by IC50: < 10 nM for the first, < 10 nM for the second.
